Assay [1] concerns the target T1, glutathione-S-transferase (GST) tagged LXRbeta LBD (ligand binding domain) (Homo sapiens, UniProt P55055).
T1 construct: purchased Invitrogen pv4658.pps
T1 sequence (P55055 222-460 limits assumed): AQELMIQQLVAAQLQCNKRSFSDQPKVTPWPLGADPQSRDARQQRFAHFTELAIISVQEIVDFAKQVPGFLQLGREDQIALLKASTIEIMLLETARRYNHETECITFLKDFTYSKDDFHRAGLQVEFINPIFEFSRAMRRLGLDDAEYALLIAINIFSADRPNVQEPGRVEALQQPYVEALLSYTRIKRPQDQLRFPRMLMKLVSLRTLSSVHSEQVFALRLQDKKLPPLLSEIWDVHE
As to the kind of experiment: LanthaScreen TR-FRET Liver X Receptor Coactivator Assay, co-activator recruitment to LXRbeta LBD. The assay is classed as biochemical. Particulars: for Emax / LXR beta Activity @ max dose (%): efficacy at max dose, in relation to reference dual agonist T0901317; for Emax: read-out: LXR beta Activity @ max dose (%); for EC50: potency (Inflection Point, IP), co-activator recruitment to LXRbeta LBD, in relation to T0901317, read-out: LXR beta IP. On the procedure: (§1) Potency (Inflection Point, IP) and efficacy (Emax) are evaluated via compound-induced co-activator recruitment to glutathione-S-transferase (GST) tagged LXRbeta and LXRalpha LBD (ligand binding domain) proteins in relation to reference dual agonist compound T0901317 (N-(2,2,2-Trifluoroethyl)-N-[4-[2,2,2-trifluoro-1-hydroxy-1-(trifluoromethyl)ethyl] phenyl] benzenesulfonamide) using the LanthaScreen™ TR-FRET Liver X Receptor Coactivator Assays according to manufacturer's instructions (Invitrogen catalog number pv4658.pps and pv4655). While running the LanthaScreen™ TR-FRET Liver X Receptor Coactivator Assay, LXR alpha-LBD or LXR beta-LBD was added to ligand test compounds followed by addition of a mixture of a fluorescein-labelled coactivator peptide and terbium-conjugated anti-GST antibody. After an incubation period at room temperature, TR-FRET (time-resolved fluorescence resonance energy transfer) was measured using a filter-based instrument capable of TR-FRET, e.g. PerkinElmer Envision.

In assay [2] the target is T2, glutathione-S-transferase (GST) tagged LXRalpha LBD (ligand binding domain) (Homo sapiens, UniProt Q13133).
T2 construct: purchased Invitrogen pv4655
T2 sequence (Q13133 209-447 limits assumed): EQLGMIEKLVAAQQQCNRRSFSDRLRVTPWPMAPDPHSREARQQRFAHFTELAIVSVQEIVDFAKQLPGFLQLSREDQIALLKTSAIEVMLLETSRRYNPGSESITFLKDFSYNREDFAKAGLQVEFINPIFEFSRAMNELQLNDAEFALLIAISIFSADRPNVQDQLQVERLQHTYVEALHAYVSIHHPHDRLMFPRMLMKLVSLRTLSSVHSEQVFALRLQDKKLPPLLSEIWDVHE
In words: LanthaScreen TR-FRET Liver X Receptor Coactivator Assay, co-activator recruitment to LXRalpha LBD. The assay is classed as biochemical. Particulars: for Emax / LXR alpha Activity @ max dose (%): efficacy at max dose, in relation to reference dual agonist T0901317; for Emax: read-out: LXR alpha Activity @ max dose (%); for EC50 / LXR alpha IP (nM): potency (Inflection Point, IP), co-activator recruitment to LXRalpha LBD, in relation to T0901317; for EC50: read-out: LXR alpha IP. On the procedure: as §1

For the molecule `CN(C)C(=O)c1ccc(N2CCC(CC3CCN(C(=O)[C@](O)(c4ccccc4)C(F)(F)F)CC3)CC2)cc1Cl` [Example 2-12, 2-chloro-N,N-dimethyl-4-[4-({1-[(2R)-3,3,3-trifluoro-2-hydroxy-2-phenylpropanoyl]piperidin-4-yl}methyl)piperidin-1-yl]benzamide], the Emax in assay [1] amounted to 79%; in assay [2], 25%.
On to `CN(C)C(=O)c1ccc(N2CCC(CC3CCN(C(=O)[C@](O)(c4ccccc4)C(F)(F)C(F)(F)F)CC3)CC2)cc1Cl` [Example 2-13, 2-chloro-N,N-dimethyl-4-[4-({1-[(2R)-3,3,4,4,4-pentafluoro-2-hydroxy-2-phenylbutanoyl]piperidin-4-yl}methyl)piperidin-1-yl]benzamide], for which the “LXR beta Activity @ max dose (%)” value in assay [1] worked out at 119%. For the same molecule, in assay [2], the “LXR alpha Activity @ max dose (%)” value turned out to be 56% and the EC50 was 177 nM.
For the molecule `CN(C)C(=O)c1ccc(N2CCC(CC3CCN(C(=O)[C@](O)(c4ccccc4)C(F)(F)C(F)(F)F)CC3)CC2)cc1Cl` [Example 2-14, 2-chloro-N,N-dimethyl-4-[4-({1-[(2R)-3,3,4,4,4-pentafluoro-2-hydroxy-2-phenylbutanoyl]piperidin-4-yl}methyl)piperidin-1-yl]benzamide], in assay [1], the “LXR beta Activity @ max dose (%)” value amounted to 89%. In assay [2], the “LXR alpha Activity @ max dose (%)” value amounted to 14% and the “LXR alpha IP (nM)” value is on record as “NO IP”.
On to `CN(C)C(=O)c1ccc(N2CCC(CC3CCN(C(=O)C(O)(c4ccc(Cl)cc4)C(F)(F)F)CC3)CC2)cc1Cl` (stereo not drawn) [Example 2-15, 2-chloro-4-[4-({1-[2-(4-chlorophenyl)-3,3,3-trifluoro-2-hydroxy-propanoyl]piperidin-4-yl}methyl)piperidin-1-yl]-N,N-dimethyl-benzamide], for which, in assay [1], the Emax is 26% and the EC50 was 298 nM. Moreover, in assay [2], the Emax stood at 0% and the “LXR alpha IP (nM)” value is “NO IP”.
As to `CN(C)C(=O)c1ccc(N2CCC(CC3CCN(C(=O)C(O)(c4ccc(C(F)(F)F)cc4)C(F)(F)F)CC3)CC2)cc1Cl` (stereo not drawn) [Example 2-16, 2-chloro-N,N-dimethyl-4-{4-[(1-{3,3,3-trifluoro-2-hydroxy-2-[4-(trifluoromethyl)phenyl]propanoyl}piperidin-4-yl)methyl]piperidin-1-yl} benzamide], in assay [1], the Emax came to 15% and the EC50 was found to be 598 nM. For the same molecule, in assay [2], the Emax is 0% and the “LXR alpha IP (nM)” value was “NO IP”.
Take `CN(C)C(=O)c1ccc(N2CCC(CC3CCN(C(=O)C(O)(c4cccc(Cl)c4)C(F)(F)F)CC3)CC2)cc1Cl` (stereo not drawn) [Example 2-17, 2-chloro-4-[4-({1-[2-(3-chlorophenyl)-3,3,3-trifluoro-2-hydroxy-propanoyl]piperidin-4-yl}methyl)piperidin-1-yl]-N,N-dimethyl-benzamide]: in assay [1], the Emax turned out to be 63% and the EC50 was found to be 11 nM. For the same molecule, in assay [2], the Emax was determined as 24% and the EC50 is 140 nM.
Consider `CN(C)C(=O)c1ccc(N2CCC(CC3CCN(C(=O)C4(c5ccccc5)CCC4)CC3)CC2)cc1Cl` [Example 2-18, 2-chloro-N,N-dimethyl-4-[4-({1-[(1-phenylcyclobutyl)carbonyl]piperidin-4-yl}methyl)piperidin-1-yl]benzamide], for which, in assay [1], the Emax is 46% and the EC50 came to 151 nM. In assay [2], the Emax was 6% and the “LXR alpha IP (nM)” value is listed as “NO IP”.
As to `CN(C)C(=O)c1ccc(N2CCC(OC3CCN(C(=O)C4(C(F)(F)F)CCCCC4)CC3)CC2)cc1Cl` [Example 2-19, 2-chloro-N,N-dimethyl-4-{4-[(1-{[1-(trifluoromethyl)cyclohexyl]carbonyl}piperidin-4-yl)oxy]piperidin-1-yl}benzamide], in assay [1], the Emax was determined as 75% and the EC50 worked out at 206 nM. In assay [2], the Emax was 23% and the EC50 was determined as 1810 nM.
As for `CO[C@](C(=O)N1CCC(OC2CCN(c3ccc(C(=O)N(C)C)c(Cl)c3)CC2)CC1)(c1ccccc1)C(F)(F)F` [Example 2-20, 2-chloro-N,N-dimethyl-4-[4-({1-[(2S)-3,3,3-trifluoro-2-methoxy-2-phenylpropanoyl]piperidin-4-yl}oxy)piperidin-1-yl]benzamide], in assay [1], the Emax is 81% and the EC50 turned out to be 335 nM. Further, in assay [2], the Emax came out at 4% and the “LXR alpha IP (nM)” value is given as “NO IP”.
Regarding `CN(C)C(=O)c1ccc(N2CCC(OC3CCN(C(=O)[C@](O)(c4ccccc4)C(F)(F)F)CC3)CC2)cc1Cl` [Example 2-21, 2-chloro-N,N-dimethyl-4-[4-({1-[(2R)-3,3,3-trifluoro-2-hydroxy-2-phenylpropanoyl]piperidin-4-yl}oxy)piperidin-1-yl]benzamide], the “LXR beta Activity @ max dose (%)” value in assay [1] was 65%. In assay [2], the “LXR alpha Activity @ max dose (%)” value is recorded as 0% and the “LXR alpha IP (nM)” value is on record as “NO IP”.
Take `CN(C)C(=O)c1ccc(N2CCC(OC3CCN(C(=O)[C@](O)(c4ccccc4)C(F)(F)C(F)(F)F)CC3)CC2)cc1Cl` [Example 2-22, 2-chloro-N,N-dimethyl-4-[4-({1-[(2R)-3,3,4,4,4-pentafluoro-2-hydroxy-2-phenylbutanoyl]piperidin-4-yl}oxy)piperidin-1-yl]benzamide]: in assay [1], the Emax turned out to be 131% and the EC50 came to 21 nM. Besides, in assay [2], the Emax was determined as 51% and the EC50 was determined as 900 nM.
Turning to `CN(C)C(=O)c1ccc(N2CCC(OC3CCN(C(=O)C(O)(c4ccc(Cl)cc4)C(F)(F)F)CC3)CC2)cc1Cl` (stereo not drawn) [Example 2-23, 2-chloro-4-[4-({1-[2-(4-chlorophenyl)-3,3,3-trifluoro-2-hydroxy-propanoyl]piperidin-4-yl}oxy)piperidin-1-yl]-N,N-dimethyl-benzamide], in assay [1], the Emax amounted to 51% and the EC50 is 513 nM. Further, in assay [2], the Emax was 0% and the “LXR alpha IP (nM)” value is on record as “NO IP”.
For `CN(C)C(=O)c1ccc(N2CCC(OC3CCN(C(=O)C(O)(c4cccc(Cl)c4)C(F)(F)F)CC3)CC2)cc1Cl` (stereo not drawn) [Example 2-24, 2-chloro-4-[4-({1-[2-(3-chlorophenyl)-3,3,3-trifluoro-2-hydroxy-propanoyl]piperidin-4-yl}oxy)piperidin-1-yl]-N,N-dimethyl-benzamide], in assay [1], the Emax was determined as 99% and the EC50 worked out at 14 nM. Moreover, in assay [2], the Emax turned out to be 37% and the EC50 was 465 nM.
For `CN(C)C(=O)c1ccc(N2CCC(OC3CCN(C(=O)C(O)(c4cccc(C(F)(F)F)c4)C(F)(F)F)CC3)CC2)cc1Cl` (stereo not drawn) [Example 2-25, 2-chloro-N,N-dimethyl-4-{4-[(1-{3,3,3-trifluoro-2-hydroxy-2-[3-(trifluoromethyl)phenyl]propanoyl}piperidin-4-yl)oxy]piperidin-1-yl}benzamide], in assay [1], the Emax is 89% and the EC50 worked out at 28 nM. In addition, in assay [2], the Emax was found to be 26% and the EC50 worked out at 695 nM.
For the molecule `COc1cccc(C(O)(C(=O)N2CCC(OC3CCN(c4ccc(C(=O)N(C)C)c(Cl)c4)CC3)CC2)C(F)(F)F)c1` (stereo not drawn) [Example 2-26, 2-chloro-N,N-dimethyl-4-[4-({1-[3,3,3-trifluoro-2-hydroxy-2-(3-methoxyphenyl)propanoyl]piperidin-4-yl}oxy)piperidin-1-yl]benzamide], in assay [1], the Emax was 68% and the EC50 worked out at 23 nM. Further, in assay [2], the Emax came out at 0% and the “LXR alpha IP (nM)” value is reported as “NO IP”.
Regarding `CN(C)C(=O)c1ccc(N2CCC(OC3CCN(C(=O)C4(c5ccccc5)CCC4)CC3)CC2)cc1Cl` [Example 2-27, 2-chloro-N,N-dimethyl-4-[4-({1-[(1-phenyl-cyclobutyl)carbonyl]piperidin-4-yl}oxy)piperidin-1-yl]benzamide], in assay [1], the Emax is 82% and the EC50 was found to be 371 nM. For the same molecule, in assay [2], the Emax was 19% and the EC50 was found to be 4620 nM.
As for `COc1cccc([C@@](O)(C(=O)N2CCC(OC3CCN(c4ccc(C(=O)N(C)C)c(Cl)c4)CC3)CC2)C(F)(F)F)c1` [Example 2-28, 2-chloro-N,N-dimethyl-4-[4-({1-[(2R)-3,3,3-trifluoro-2-hydroxy-2-(3-methoxyphenyl)propanoyl]piperidin-4-yl}oxy)piperidin-1-yl]benzamide], the Emax in assay [1] is 87%; in assay [2] it was 28%. The EC50 in assay [1] is 25 nM; in assay [2], 1740 nM.

For the origin of these results see patent publication US10752587B2, “Homobispiperidinyl derivatives as liver X receptor beta agonists, compositions and their use” (Merck Sharp & Dohme Corp., priority 2015, dated 2020).
